According to ChEMBL document CHEMBL5291721, “A preclinical secondary pharmacology resource illuminates target-adverse drug reaction associations of marketed drugs” (Nat Commun, 2023):
One block for each molecule: values may come before it.

Tests used:
[1] = target: T1, Muscarinic acetylcholine receptor M5 (Homo sapiens, UniProt P08912)
T1 sequence (P08912 whole entry): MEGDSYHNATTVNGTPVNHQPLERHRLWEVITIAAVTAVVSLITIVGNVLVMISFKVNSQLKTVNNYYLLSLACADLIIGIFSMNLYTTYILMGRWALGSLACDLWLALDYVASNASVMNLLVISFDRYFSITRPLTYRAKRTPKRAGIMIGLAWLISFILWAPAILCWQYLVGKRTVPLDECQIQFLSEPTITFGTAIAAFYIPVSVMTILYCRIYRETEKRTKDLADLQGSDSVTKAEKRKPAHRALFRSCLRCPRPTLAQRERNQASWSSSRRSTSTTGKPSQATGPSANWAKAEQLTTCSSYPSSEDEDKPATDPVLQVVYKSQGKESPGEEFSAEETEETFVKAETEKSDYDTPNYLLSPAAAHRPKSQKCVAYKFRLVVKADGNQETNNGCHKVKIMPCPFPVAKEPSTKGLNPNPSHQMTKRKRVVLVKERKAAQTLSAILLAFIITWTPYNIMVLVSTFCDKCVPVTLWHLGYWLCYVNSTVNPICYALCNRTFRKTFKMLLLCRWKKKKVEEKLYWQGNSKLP

[2] = target: Rod cGMP-specific 3',5'-cyclic phosphodiesterase subunit alpha (Homo sapiens, UniProt P16499); assay type: functional
Sequence of Rod cGMP-specific 3',5'-cyclic phosphodiesterase subunit alpha (P16499 whole entry): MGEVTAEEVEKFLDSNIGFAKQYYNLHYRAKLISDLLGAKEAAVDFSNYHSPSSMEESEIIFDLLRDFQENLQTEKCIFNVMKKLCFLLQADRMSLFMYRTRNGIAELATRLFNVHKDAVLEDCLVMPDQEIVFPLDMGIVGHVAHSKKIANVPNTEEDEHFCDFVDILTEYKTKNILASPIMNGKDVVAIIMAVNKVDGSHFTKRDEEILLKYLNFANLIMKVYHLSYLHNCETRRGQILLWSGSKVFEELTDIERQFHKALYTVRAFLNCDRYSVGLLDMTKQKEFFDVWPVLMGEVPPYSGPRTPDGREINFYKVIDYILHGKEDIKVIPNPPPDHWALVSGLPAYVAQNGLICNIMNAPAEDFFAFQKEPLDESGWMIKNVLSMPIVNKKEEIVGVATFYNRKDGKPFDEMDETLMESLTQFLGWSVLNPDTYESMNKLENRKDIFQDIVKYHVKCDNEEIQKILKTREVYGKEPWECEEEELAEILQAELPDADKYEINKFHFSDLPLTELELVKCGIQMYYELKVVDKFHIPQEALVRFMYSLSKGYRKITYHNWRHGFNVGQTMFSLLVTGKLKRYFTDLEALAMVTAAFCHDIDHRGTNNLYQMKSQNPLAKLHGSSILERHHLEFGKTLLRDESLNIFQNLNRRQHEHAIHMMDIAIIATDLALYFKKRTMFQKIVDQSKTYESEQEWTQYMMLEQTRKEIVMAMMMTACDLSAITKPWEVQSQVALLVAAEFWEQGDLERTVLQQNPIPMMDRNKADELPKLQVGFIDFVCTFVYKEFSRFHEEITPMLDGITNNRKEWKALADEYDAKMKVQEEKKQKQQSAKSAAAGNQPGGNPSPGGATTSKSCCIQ

[3] = target: 5-hydroxytryptamine receptor 5A (Homo sapiens, UniProt P47898)
Sequence of 5-hydroxytryptamine receptor 5A (P47898 whole entry): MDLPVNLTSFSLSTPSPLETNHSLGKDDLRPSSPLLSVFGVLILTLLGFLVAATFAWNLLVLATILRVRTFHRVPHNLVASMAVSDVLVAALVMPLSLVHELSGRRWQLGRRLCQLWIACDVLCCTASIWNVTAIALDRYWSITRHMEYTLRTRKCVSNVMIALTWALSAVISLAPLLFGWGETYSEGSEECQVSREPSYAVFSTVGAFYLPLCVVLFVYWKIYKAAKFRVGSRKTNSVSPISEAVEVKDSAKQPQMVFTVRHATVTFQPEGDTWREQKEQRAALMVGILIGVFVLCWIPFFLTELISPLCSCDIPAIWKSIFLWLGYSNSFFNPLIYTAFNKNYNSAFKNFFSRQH

D(1B) dopamine receptor = D(1B) dopamine receptor (Homo sapiens, UniProt P21918)
Sequence of D(1B) dopamine receptor (P21918 whole entry): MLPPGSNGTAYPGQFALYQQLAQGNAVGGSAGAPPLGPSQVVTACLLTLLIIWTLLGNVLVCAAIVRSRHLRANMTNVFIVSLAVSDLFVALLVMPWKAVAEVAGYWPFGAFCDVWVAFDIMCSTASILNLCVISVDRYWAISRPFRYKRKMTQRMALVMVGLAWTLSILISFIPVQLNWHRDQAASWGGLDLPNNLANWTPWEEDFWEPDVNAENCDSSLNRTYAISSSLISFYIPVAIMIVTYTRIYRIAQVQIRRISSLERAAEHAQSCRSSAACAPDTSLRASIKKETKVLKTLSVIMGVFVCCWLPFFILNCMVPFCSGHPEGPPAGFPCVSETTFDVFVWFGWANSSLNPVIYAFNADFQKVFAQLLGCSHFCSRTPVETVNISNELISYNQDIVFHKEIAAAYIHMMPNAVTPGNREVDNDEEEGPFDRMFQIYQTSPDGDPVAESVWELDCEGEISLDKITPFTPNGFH

Androgen receptor = target: T2, Androgen receptor (Rattus norvegicus, UniProt P15207); assay type: functional
T2 sequence (P15207 whole entry): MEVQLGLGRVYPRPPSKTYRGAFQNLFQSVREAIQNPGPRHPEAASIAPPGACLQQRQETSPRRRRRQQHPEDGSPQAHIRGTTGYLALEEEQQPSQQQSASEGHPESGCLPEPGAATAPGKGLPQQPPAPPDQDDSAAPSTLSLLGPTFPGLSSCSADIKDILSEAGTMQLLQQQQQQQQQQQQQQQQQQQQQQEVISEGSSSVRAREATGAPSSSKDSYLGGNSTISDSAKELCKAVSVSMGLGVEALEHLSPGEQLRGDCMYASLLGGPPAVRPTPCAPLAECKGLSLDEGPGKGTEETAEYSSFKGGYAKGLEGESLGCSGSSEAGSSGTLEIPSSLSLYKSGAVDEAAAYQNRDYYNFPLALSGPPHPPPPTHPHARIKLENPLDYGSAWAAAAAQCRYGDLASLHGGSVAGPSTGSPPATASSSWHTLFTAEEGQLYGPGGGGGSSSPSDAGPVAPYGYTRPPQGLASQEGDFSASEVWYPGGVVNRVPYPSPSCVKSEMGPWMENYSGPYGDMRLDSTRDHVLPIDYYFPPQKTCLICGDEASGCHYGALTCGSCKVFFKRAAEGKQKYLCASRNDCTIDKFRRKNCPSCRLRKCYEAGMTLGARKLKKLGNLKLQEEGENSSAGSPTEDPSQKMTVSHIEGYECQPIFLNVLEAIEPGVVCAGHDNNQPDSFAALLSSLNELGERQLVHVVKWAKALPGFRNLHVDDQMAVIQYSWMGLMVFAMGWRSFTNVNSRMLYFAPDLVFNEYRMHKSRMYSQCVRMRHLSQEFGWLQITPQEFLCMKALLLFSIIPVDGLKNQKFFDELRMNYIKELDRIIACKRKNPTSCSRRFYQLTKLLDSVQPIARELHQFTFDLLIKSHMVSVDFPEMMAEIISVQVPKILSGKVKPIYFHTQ

Substance-K receptor = target: T3, Substance-K receptor (Homo sapiens, UniProt P21452)
T3 sequence (P21452 whole entry): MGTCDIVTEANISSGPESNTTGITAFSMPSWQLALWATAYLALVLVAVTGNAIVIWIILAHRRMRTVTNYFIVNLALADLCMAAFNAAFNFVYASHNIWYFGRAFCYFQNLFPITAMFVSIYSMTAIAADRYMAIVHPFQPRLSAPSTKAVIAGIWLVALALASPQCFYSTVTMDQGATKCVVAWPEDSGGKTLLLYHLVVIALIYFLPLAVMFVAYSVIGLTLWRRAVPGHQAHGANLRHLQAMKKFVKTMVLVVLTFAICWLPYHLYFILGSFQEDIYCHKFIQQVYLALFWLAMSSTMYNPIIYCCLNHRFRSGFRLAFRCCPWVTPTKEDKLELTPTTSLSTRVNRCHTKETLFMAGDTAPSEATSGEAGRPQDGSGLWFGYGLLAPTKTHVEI

[4] = target: T4, Nuclear receptor subfamily 1 group I member 3 (Homo sapiens, UniProt Q14994); assay type: functional
T4 sequence (Q14994 whole entry): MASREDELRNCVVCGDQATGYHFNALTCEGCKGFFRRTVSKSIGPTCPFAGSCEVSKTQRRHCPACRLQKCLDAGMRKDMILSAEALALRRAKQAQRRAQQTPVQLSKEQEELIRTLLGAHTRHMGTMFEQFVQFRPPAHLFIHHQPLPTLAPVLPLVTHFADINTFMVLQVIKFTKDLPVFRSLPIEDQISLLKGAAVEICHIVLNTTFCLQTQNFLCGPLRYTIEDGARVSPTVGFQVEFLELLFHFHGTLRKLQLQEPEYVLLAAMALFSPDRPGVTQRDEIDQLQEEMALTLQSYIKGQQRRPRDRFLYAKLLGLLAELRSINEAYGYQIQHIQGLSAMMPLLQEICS

Histamine H1 receptor [5] = target: T5, Histamine H1 receptor (Homo sapiens, UniProt P35367); assay type: functional, cell-based
T5 sequence (P35367 whole entry): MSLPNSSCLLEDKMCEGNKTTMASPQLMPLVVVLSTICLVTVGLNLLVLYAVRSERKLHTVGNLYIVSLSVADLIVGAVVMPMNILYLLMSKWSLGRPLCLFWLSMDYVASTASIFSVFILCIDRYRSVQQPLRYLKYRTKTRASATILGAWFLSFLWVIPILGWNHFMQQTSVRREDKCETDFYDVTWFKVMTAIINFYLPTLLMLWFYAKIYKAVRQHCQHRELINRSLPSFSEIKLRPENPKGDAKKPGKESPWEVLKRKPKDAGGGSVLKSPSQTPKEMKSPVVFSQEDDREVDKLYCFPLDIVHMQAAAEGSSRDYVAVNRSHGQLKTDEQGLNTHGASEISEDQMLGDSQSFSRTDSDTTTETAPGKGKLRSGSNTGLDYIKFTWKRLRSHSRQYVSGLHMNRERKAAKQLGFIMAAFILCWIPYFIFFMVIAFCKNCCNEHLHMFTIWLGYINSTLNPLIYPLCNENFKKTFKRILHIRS

Histamine H1 receptor [6] = target: T5, Histamine H1 receptor; assay type: functional, cell-based; remark: listed apart in the source
[7] = target: T6, Muscarinic acetylcholine receptor M1 (Homo sapiens, UniProt P11229); assay type: functional, cell-based
T6 sequence (P11229 whole entry): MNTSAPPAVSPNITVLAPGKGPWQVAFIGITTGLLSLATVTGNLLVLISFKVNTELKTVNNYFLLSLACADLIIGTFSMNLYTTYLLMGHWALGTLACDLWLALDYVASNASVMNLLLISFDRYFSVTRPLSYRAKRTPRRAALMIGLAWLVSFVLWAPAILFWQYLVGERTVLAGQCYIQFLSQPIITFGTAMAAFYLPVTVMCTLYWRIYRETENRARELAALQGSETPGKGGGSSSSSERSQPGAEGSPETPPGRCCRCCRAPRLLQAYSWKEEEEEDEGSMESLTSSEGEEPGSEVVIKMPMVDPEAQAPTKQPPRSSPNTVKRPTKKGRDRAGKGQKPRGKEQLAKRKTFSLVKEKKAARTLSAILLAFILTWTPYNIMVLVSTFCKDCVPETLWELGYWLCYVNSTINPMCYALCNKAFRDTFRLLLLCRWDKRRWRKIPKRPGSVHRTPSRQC
Note: assay procedure not described here.

SMILES: CCOc1nc2cccc(C(=O)O)c2n1Cc1ccc(-c2ccccc2-c2nnn[nH]2)cc1
AC50 [1]: > 10 µM
AC50 [2]: > 10 µM
AC50 [3]: > 10 µM
AC50 (D(1B) dopamine receptor): > 10 µM
AC50 (Androgen receptor): > 30 µM
AC50 (Substance-K receptor): > 10 µM

SMILES: CCCc1nc2c(C)cc(-c3nc4ccccc4n3C)cc2n1Cc1ccc(-c2ccccc2C(=O)O)cc1
AC50 [1]: > 10 µM

SMILES: CCOc1cc([C@@H](CS(C)(=O)=O)N2C(=O)c3cccc(NC(C)=O)c3C2=O)ccc1OC
AC50 (Androgen receptor): > 30 µM

SMILES: CC(C(=O)O)c1ccc2oc(-c3ccc(Cl)cc3)nc2c1 (configuration not stated) [BENOXAPROFEN]
AC50 (Androgen receptor): > 30 µM

SMILES: CCC(=O)O[C@]1(C(=O)CCl)[C@@H](C)C[C@H]2[C@@H]3CCC4=CC(=O)C=C[C@]4(C)[C@@]3(F)[C@@H](O)C[C@@]21C [CLOBETASOL PROPIONATE]
AC50 (Androgen receptor): > 30 µM

SMILES: O=C(O)Cc1ccccc1Nc1c(Cl)cccc1Cl [DICLOFENAC]
AC50 [1]: > 10 µM
AC50 [4]: 23 µM
AC50 [2]: > 10 µM
AC50 [3]: > 10 µM
AC50 (D(1B) dopamine receptor): > 10 µM
AC50 (Substance-K receptor): > 10 µM

SMILES: O=C(O)Cc1ccccc1Oc1ccc(Cl)cc1Cl [FENCLOFENAC]
AC50 (Histamine H1 receptor [5]): > 30 µM
AC50 (Histamine H1 receptor [6]): > 30 µM

SMILES: COc1ccccc1OC1(C)OC(=O)c2ccccc2O1 (configuration not stated) [GUAIMESAL]
AC50 (Androgen receptor): > 30 µM

SMILES: O=C1Cc2cc(CCN3CCN(c4nsc5ccccc45)CC3)c(Cl)cc2N1 [ZIPRASIDONE]
AC50 [7]: > 30 µM

Second part, the molecule after the results:

AC50 [1]: > 10 µM
AC50 (Substance-K receptor): > 10 µM
SMILES: Cc1nc(Nc2ncc(C(=O)Nc3c(C)cccc3Cl)s2)cc(N2CCN(CCO)CC2)n1 [DASATINIB]

AC50 (Histamine H1 receptor [5]): > 30 µM
AC50 (Histamine H1 receptor [6]): > 30 µM
SMILES: CN1Cc2c(N)cccc2C(c2ccccc2)C1 (configuration not stated) [NOMIFENSINE]

AC50 [1]: > 10 µM
AC50 [4]: 18 µM
SMILES: CN(CCOc1ccc(CC2SC(=O)NC2=O)cc1)c1ccccn1 (configuration not stated) [ROSIGLITAZONE]

AC50 [4]: 4 µM
SMILES: COc1cc(C(=O)NS(=O)(=O)c2ccccc2C)ccc1Cc1cn(C)c2ccc(NC(=O)OC3CCCC3)cc12 [ZAFIRLUKAST]
